Reference: US9452986B2, “6-heteroaryloxy- or 6-aryloxy-quinoline-2-carboxamides and method of use” (AbbVie Inc., priority 2014, dated 2016)
pIC50: −log10 of the molar value. Read-outs that look alike come from different tables or passages of the source.

Molecular target: recombinant human Nav1.7 (Homo sapiens (Human), UniProt Q15858)
Assay: FRET-based membrane potential assay, recombinant human sodium channel Nav1.7
Type: cell-based
Conditions: read-out: FRET-Membrane Potential Nav1.7 IC50
Procedure: FRET-Based Membrane Potential Assays.
Recombinant, Human Sodium Channel, Nav1.7.
On the day of the assay, medium was removed by aspiration, and cells were washed with assay buffer [HBSS (Invitrogen, Carlsbad, Calif.) containing 20 mM HEPES (Invitrogen, Carlsbad, Calif.)]. […] Cells were incubated for 40 minutes at room temperature in the dark. […] The cells were incubated for 90 minutes at room temperature in the dark. Fluorescence readings were made using a FLIPR®^TETRA (Molecular Devices, Sunnyvale Calif.) equipped with voltage-sensor probe optics. At the start of each experiment the optimal (EC80) concentration of depolarizing agent (veratridine) was determined by testing a dilution curve of assay buffer containing veratridine (Sigma-Aldrich, St. Louis, Mo.) and 1 mg/mL scorpion venom (SVqq, from Leiurus quinquestriatus; Sigma-Aldrich, St. Louis, Mo.). […] Test compounds in the daughter plate were diluted to (˜3×) solutions in assay buffer immediately before assaying. Using the FLIPR®^TETRA, 20 μL of the (3×) compound solutions were first added to the cells, then 20 μL of depolarizing solution (3×EC80 veratridine+SVqq) were added 3 minutes later to activate the channel. […] IC50 values were calculated from curve fits of the ratio data using a four-parameter logistic Hill equation (Accelrys Assay Explorer 3.3 Client, Accelrys, San Diego, Calif.) with percent inhibition plotted against compound concentration.

[1] = HEK293 cells stably expressing recombinant human Nav1.7, veratridine + scorpion venom depolarization

recombinant human Nav1.7, sequence (Q15858 whole entry): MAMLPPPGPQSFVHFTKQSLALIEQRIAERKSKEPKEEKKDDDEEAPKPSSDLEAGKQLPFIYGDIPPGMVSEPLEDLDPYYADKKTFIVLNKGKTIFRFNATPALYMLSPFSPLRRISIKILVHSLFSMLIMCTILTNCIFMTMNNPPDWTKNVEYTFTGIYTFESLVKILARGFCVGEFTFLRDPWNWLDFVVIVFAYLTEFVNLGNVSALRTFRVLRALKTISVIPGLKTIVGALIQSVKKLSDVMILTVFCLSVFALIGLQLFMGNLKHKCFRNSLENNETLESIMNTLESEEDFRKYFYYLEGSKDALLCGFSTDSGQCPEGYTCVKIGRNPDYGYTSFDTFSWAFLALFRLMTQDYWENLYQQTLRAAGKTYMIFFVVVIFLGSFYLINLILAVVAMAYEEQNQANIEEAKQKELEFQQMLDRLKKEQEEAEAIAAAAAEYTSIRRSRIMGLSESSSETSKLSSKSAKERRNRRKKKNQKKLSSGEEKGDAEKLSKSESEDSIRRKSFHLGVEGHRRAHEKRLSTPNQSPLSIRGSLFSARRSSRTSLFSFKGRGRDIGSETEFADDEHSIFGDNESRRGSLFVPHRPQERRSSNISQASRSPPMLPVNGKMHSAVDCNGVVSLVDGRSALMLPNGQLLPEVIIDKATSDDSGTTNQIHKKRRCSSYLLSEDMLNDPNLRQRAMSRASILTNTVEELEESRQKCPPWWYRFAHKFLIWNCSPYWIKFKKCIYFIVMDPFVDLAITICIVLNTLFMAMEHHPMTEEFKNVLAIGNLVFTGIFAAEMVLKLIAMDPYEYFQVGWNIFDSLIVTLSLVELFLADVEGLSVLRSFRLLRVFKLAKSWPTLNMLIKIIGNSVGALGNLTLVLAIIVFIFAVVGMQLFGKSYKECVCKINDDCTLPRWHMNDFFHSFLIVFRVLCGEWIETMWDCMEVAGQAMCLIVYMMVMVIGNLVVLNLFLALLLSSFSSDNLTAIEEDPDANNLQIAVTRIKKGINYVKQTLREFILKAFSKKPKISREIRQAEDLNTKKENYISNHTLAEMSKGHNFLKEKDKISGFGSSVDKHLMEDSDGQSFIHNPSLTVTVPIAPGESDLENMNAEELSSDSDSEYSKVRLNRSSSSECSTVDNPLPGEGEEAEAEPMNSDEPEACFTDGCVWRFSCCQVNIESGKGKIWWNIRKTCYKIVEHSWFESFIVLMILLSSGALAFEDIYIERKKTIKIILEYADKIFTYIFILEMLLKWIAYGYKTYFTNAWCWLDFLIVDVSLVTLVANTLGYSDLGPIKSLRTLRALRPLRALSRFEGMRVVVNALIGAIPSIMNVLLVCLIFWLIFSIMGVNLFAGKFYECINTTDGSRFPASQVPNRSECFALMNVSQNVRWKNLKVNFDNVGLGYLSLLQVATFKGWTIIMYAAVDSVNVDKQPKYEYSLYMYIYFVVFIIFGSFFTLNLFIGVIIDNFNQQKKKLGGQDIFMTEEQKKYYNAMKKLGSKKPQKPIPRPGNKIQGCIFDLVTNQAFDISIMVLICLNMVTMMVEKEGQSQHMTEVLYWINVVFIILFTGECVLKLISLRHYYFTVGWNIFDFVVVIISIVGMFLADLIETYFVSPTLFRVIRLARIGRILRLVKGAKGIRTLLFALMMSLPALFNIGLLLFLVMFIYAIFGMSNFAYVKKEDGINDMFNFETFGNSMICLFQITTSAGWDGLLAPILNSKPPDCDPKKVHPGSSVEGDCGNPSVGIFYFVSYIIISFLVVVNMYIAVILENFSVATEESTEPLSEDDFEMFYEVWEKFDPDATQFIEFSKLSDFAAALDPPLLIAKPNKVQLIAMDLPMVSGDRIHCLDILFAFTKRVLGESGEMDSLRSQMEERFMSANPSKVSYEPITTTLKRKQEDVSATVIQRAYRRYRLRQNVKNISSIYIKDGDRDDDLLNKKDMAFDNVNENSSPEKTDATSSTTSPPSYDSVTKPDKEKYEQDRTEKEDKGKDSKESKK

Row | SMILES | pIC50 [1] | pIC50
1 | CC(C)NC(=O)CN(C)C(=O)c1ccc2cc(Oc3ccc(C(F)(F)F)nc3)ccc2n1 [Example 525, N-[2-(isopropylamino)-2-oxoethyl]-N-methyl-6-{[6-(trifluoromethyl)pyridin-3-yl]oxy}quinoline-2-carboxamide] | 5.18 | –
2 | O=C(NCC(=O)N1CCC(F)C1)c1ccc2cc(Oc3ccc(C(F)(F)F)cn3)ccc2n1 (stereo not shown) [Example 573, N-[2-(3-fluoropyrrolidin-1-yl)-2-oxoethyl]-6-{[5-(trifluoromethyl)pyridin-2-yl]oxy}quinoline-2-carboxamide] | 6.01 | –
3 | CS(=O)(=O)N1CCN(C(=O)c2ccc3cc(Oc4ccc(C(F)(F)F)cn4)ccc3n2)CC1 [Example 176, [4-(methylsulfonyl)piperazin-1-yl](6-{[5-(trifluoromethyl)pyridin-2-yl]oxy}quinolin-2-yl)methanone] | – | 5.06
4 | O=C(NCCN1CCNCC1=O)c1ccc2cc(Oc3ccc(C(F)(F)F)cn3)ccc2n1 [Example 469, N-[2-(2-oxopiperazin-1-yl)ethyl]-6-{[5-(trifluoromethyl)pyridin-2-yl]oxy}quinoline-2-carboxamide] | 5.77 | –
5 | O=C(NCC(=O)N1CCOCC1)c1ccc2cc(Oc3ccc(C(F)F)cn3)ccc2n1 [Example 458, 6-{[5-(difluoromethyl)pyridin-2-yl]oxy}-N-[2-(morpholin-4-yl)-2-oxoethyl]quinoline-2-carboxamide] | 5.92 | –
6 | O=C(c1ccc2cc(Oc3ccc(C(F)(F)F)cn3)ccc2n1)N1CCN(Cc2ncco2)CC1 [Example 510, [4-(1,3-oxazol-2-ylmethyl)piperazin-1-yl](6-{[5-(trifluoromethyl)pyridin-2-yl]oxy}quinolin-2-yl)methanone] | 5.14 | –
7 | CC(=O)c1ccc(Oc2ccc3nc(C(=O)N4CCNCC4)ccc3c2)nc1 [Example 226, 1-(6-{[2-(piperazin-1-ylcarbonyl)quinolin-6-yl]oxy}pyridin-3-yl)ethanone] | < 4.70 | –
8 | N#Cc1ccc(Oc2ccc3nc(C(=O)NC4(CO)CC4)ccc3c2)cc1 [Example 123, 6-(4-cyanophenoxy)-N-[1-(hydroxymethyl)cyclopropyl]quinoline-2-carboxamide] | – | 5.18
9 | O=C(c1ccc2cc(Oc3ccc(C(F)(F)F)cn3)ccc2n1)N1CCC(CO)C1 (stereo not shown) [Example 266, [3-(hydroxymethyl)pyrrolidin-1-yl](6-{[5-(trifluoromethyl)pyridin-2-yl]oxy}quinolin-2-yl)methanone] | 5.24 | –
10 | O=C(c1ccc2cc(Oc3ccc(C(F)F)cn3)ccc2n1)N1CC(N2CCOCC2)C1 [Example 429, (6-{[5-(difluoromethyl)pyridin-2-yl]oxy}quinolin-2-yl) [3-(morpholin-4-yl)azetidin-1-yl]methanone] | – | 4.86
11 | N#Cc1ccc(Oc2ccc3nc(C(=O)Nc4ccc(Oc5ccccc5)cc4)ccc3c2)cc1 [Example 101, 6-(4-cyanophenoxy)-N-(4-phenoxyphenyl)quinoline-2-carboxamide] | – | < 4.70
12 | COCCNC(=O)CN(C)C(=O)c1ccc2cc(Oc3ccc(C(F)(F)F)nc3)ccc2n1 [Example 514, N-{2-[(2-methoxyethyl)amino]-2-oxoethyl}-N-methyl-6-{[6-(trifluoromethyl)pyridin-3-yl]oxy}quinoline-2-carboxamide] | 4.89 | –
13 | O=C(c1ccc2cc(Oc3ccc(C(F)(F)F)cn3)ccc2n1)N1CCN(c2ccccn2)CC1 [Example 182, [4-(pyridin-2-yl)piperazin-1-yl](6-{[5-(trifluoromethyl)pyridin-2-yl]oxy}quinolin-2-yl)methanone] | 6.16 | –
14 | O=C(NCCC1CS(=O)(=O)C1)c1ccc2cc(Oc3ccc(C(F)(F)F)cn3)ccc2n1 [Example 615, N-[2-(1,1-dioxidothietan-3-yl)ethyl]-6-{[5-(trifluoromethyl)pyridin-2-yl]oxy}quinoline-2-carboxamide] | 5.63 | –
15 | CN(C)C(=O)CN(C)C(=O)c1ccc2cc(Oc3ccc(C(F)(F)F)cn3)ccc2n1 [Example 413, N-[2-(dimethylamino)-2-oxoethyl]-N-methyl-6-{[5-(trifluoromethyl)pyridin-2-yl]oxy}quinoline-2-carboxamide] | 4.91 | –
16 | CN(C)C(=O)[C@@H]1CCCN1C(=O)c1ccc2cc(Oc3ccc(C(F)F)cn3)ccc2n1 [Example 465, 1-[(6-{[5-(difluoromethyl)pyridin-2-yl]oxy}quinolin-2-yl)carbonyl]-N,N-dimethyl-L-prolinamide] | < 4.70 | –
17 | O=C(c1ccc2cc(Oc3ccc(C(F)(F)F)cn3)ccc2n1)N1CC(O)C(F)C1 (stereo not shown) [Example 292, (3-fluoro-4-hydroxypyrrolidin-1-yl)(6-{[5-(trifluoromethyl)pyridin-2-yl]oxy}quinolin-2-yl)methanone] | 5.49 | –

Row | SMILES | pIC50 [1] | pIC50
18 | O=C1NCC(=O)N2CCN(C(=O)c3ccc4cc(Oc5ccc(C(F)(F)F)cn5)ccc4n3)CC12 (stereo not shown) [Example 171, 8-[(6-{[5-(trifluoromethyl)pyridin-2-yl]oxy}quinolin-2-yl)carbonyl]tetrahydro-2H-pyrazino[1,2-a]pyrazine-1,4(3H,6H)-dione] | 5.10 | –
19 | COc1cccc(CNC(=O)c2ccc3cc(Oc4ccc(C#N)cc4)ccc3n2)c1OC [Example 105, 6-(4-cyanophenoxy)-N-(2,3-dimethoxybenzyl)quinoline-2-carboxamide] | 5.14 | –
20 | O=C(NCC1CSC1)c1ccc2cc(Oc3ccc(C(F)(F)F)cn3)ccc2n1 [Example 600, N-(thietan-3-ylmethyl)-6-{[5-(trifluoromethyl)pyridin-2-yl]oxy}quinoline-2-carboxamide] | 5.75 | –
21 | O=C(c1ccc2cc(Oc3ccc(C(F)(F)F)cn3)ccc2n1)N1CC(F)C(F)C1 (stereo not shown) [Example 415, (3,4-difluoropyrrolidin-1-yl)(6-{[5-(trifluoromethyl)pyridin-2-yl]oxy}quinolin-2-yl)methanone] | 5.79 | –
22 | O=C(c1ccc2cc(Oc3ccc(C(F)(F)F)cn3)ccc2n1)N1CCN(S(=O)(=O)c2cccnc2)CC1 [Example 183, [4-(pyridin-3-ylsulfonyl)piperazin-1-yl](6-{[5-(trifluoromethyl)pyridin-2-yl]oxy}quinolin-2-yl)methanone] | < 4.70 | –
23 | O=C(c1ccc2cc(Oc3ncc(C(F)(F)F)cn3)ccc2n1)N1CCNCC1 [Example 247, piperazin-1-yl(6-{[5-(trifluoromethyl)pyrimidin-2-yl]oxy}quinolin-2-yl)methanone] | – | 4.88
24 | COCCOC1CN(C(=O)c2ccc3cc(Oc4ccc(C(F)(F)F)cn4)ccc3n2)C1 [Example 427, [3-(2-methoxyethoxy)azetidin-1-yl](6-{[5-(trifluoromethyl)pyridin-2-yl]oxy}quinolin-2-yl)methanone] | < 4.70 | –
25 | N#Cc1ccc(Oc2ccc3nc(C(=O)NC(CO)CO)ccc3c2)cc1 [Example 126, 6-(4-cyanophenoxy)-N-(1,3-dihydroxypropan-2-yl)quinoline-2-carboxamide] | 5.06 | –
26 | CN(C)C(=O)[C@@H]1C[C@@H](F)CN1C(=O)c1ccc2cc(Oc3ccc(C(F)(F)F)cn3)ccc2n1 [Example 509, (4R)-4-fluoro-N,N-dimethyl-1-[(6-{[5-(trifluoromethyl)pyridin-2-yl]oxy}quinolin-2-yl)carbonyl]-L-prolinamide] | 5.58 | –
27 | O=C(c1ccc2cc(Oc3ccc(C(F)F)cn3)ccc2n1)N1CCNCC1C(F)F (stereo not shown) [Example 430, [2-(difluoromethyl)piperazin-1-yl](6-{[5-(difluoromethyl)pyridin-2-yl]oxy}quinolin-2-yl)methanone] | – | 5.46
28 | CCOC(=O)N1CCN(C(=O)c2ccc3cc(Oc4ccc(C(F)(F)F)cn4)ccc3n2)CC1 [Example 289, ethyl 4-[(6-{[5-(trifluoromethyl)pyridin-2-yl]oxy}quinolin-2-yl)carbonyl]piperazine-1-carboxylate] | 5.41 | –
29 | N#Cc1ccc(Oc2ccc3nc(C(=O)N[C@@H]4CCOC4=O)ccc3c2)cc1 [Example 113, 6-(4-cyanophenoxy)-N-[(3R)-2-oxotetrahydrofuran-3-yl]quinoline-2-carboxamide] | 6.13 | –
30 | N#Cc1ccc(Oc2ccc3nc(C(=O)NCCN4CCOCC4)ccc3c2)cc1 [Example 86, 6-(4-cyanophenoxy)-N-[2-(morpholin-4-yl)ethyl]quinoline-2-carboxamide] | – | 5.76
31 | O=C(c1ccc2cc(Oc3ccc(C(F)(F)F)cn3)ccc2n1)N1CCC2(CCC2O)CC1 (stereo not shown) [Example 341, (1-hydroxy-7-azaspiro[3.5]non-7-yl)(6-{[5-(trifluoromethyl)pyridin-2-yl]oxy}quinolin-2-yl)methanone] | 5.37 | –
32 | N#Cc1ccc(Oc2ccc3nc(C(=O)N[C@H]4CCOC4)ccc3c2)cc1 [Example 118, 6-(4-cyanophenoxy)-N-[(3S)-tetrahydrofuran-3-yl]quinoline-2-carboxamide] | – | 5.64
33 | CC(=O)Nc1nc(C)c(S(=O)(=O)N2CCN(C(=O)c3ccc4cc(Oc5ccc(C(F)(F)F)cn5)ccc4n3)CC2)s1 [Example 388, N-[4-methyl-5-({4-[(6-{[5-(trifluoromethyl)pyridin-2-yl]oxy}quinolin-2-yl)carbonyl]piperazin-1-yl}sulfonyl)-1,3-thiazol-2-yl]acetamide] | < 4.70 | –
34 | O=C(NCCN1CCSCC1)c1ccc2cc(Oc3ccc(C(F)(F)F)cn3)ccc2n1 [Example 365, N-[2-(thiomorpholin-4-yl)ethyl]-6-{[5-(trifluoromethyl)pyridin-2-yl]oxy}quinoline-2-carboxamide] | 6.45 | –
